Assay results as given in US5935987A, “Transdermal delivery of 3,4-diarylchromans” (priority 1996, dated 1999).
“And” between values parts separate entries of the source, which are not always exact repeats. Identical values can stand only once. Counter-ions that a name gives are not always drawn. Like-named read-outs stand apart in the source and are kept apart here. Values belong to the compound of their own block, whether it stands above or below them.

What was measured:
[1] = Concentration of levormeloxifene fumarate in saturated donor solutions (HPLC); assay type: physicochemical; conditions: stirred 24 hours, room temperature; for solubility thermodynamic at 24 h: read-out: Conc. unmarked (donor phase saturated)
Method: The donor solutions were made of selected vehicles which were saturated with levormeloxifene fumarate, cf. Table 1. To prepare the donor solutions, levormeloxifene fumarate was added to the vehicles, and after stirring at room temperature for 24 hours, the donor solution was saturated with levormeloxifene fumarate and filtered through a Millipore filter 0.22 μm. Thereafter ^14 C-levormeloxifene was added to 1.00 ml of the donor solution to give a final concentration of ^14 C-levormeloxifene at 3 mg/ml (1,3 mCi/mi). Thereafter the donor solution was applied on the epidermal side of the skin, and the experiment was performed with occlusion. The concentrations of levormeloxifene fumarate in the donor solutions were determined previously by a HPLC method.

[2] = assay type: in vitro ADME, human
Method: The effect of selected formulations on levormeloxifene fumarate permeation through human skin in vitro is illustrated in the following way:
Franz glass diffusion cells were used (Franz, T. J.: Curr. Probl. Dermatol., 1978: 7; 58-68).
Experiments were performed on abdominal or breast skin obtained after surgery and kept at -20° C. for not more than ten months. After initial thawing the skin was squeezed between a metal and a glass plate, and after refreezing the skin was dermatomed to a thickness of 0.5 mm.
The human skin membrane was enclosed in the glass chambers with ground faces (diffusing area 0.64 cm^2). A clamp was used to keep the chambers together. […]
After the skin was allowed to equilibrate at 32° C. for one hour, the capacitance was measured with a Lutron DM 6023 Capacitance meter. […]
The donor solutions were made of selected vehicles which were saturated with levormeloxifene fumarate, cf. […] The concentrations of levormeloxifene fumarate in the donor solutions were determined previously by a HPLC method. […]
At appropriate intervals, samples were taken from the receptor phase and replaced by fresh receptor solution in order to keep sink-conditions. The amount of levormeloxifene fumarate in the receptor solution was determined using liquid scintillatory counting. […]
The mean value and the standard deviation were calculated of the flux J of the replicates. […]

[3] = racemate; cited from earlier work
[4] = background statement; cited from earlier work
[5] = background statement, cited from earlier work

solubility thermodynamic at 24 h ([1]; acetic acid 0.05m (b4), pH 4, vehicle B4 (acetic acid 0.05M, pH 4)): 325 µg/mL
solubility thermodynamic at 24 h ([1]; b4 + 2% 2-pyrrolidon, vehicle B4 + 2% 2-pyrrolidon): 420 µg/mL
solubility thermodynamic at 24 h ([1]; b4 + 20% ethanol, organic solvent or mixture, vehicle B4 + 20% ethanol): 1400 µg/mL
solubility thermodynamic at 24 h ([1]; b4 + 30% ethanol, organic solvent or mixture, vehicle B4 + 30% ethanol): 3100 µg/mL
solubility thermodynamic at 24 h ([1]; pg + 10% oleic acid, organic solvent or mixture, vehicle PG + 10% oleic acid): 116000 µg/mL
Conc. unmarked (donor phase saturated) ([1]; vehicle B4 (acetic acid 0.05M, pH 4), 1440 min): 0.32 mg/mL and 0.325 mg/mL
Dosage per day [2]: 0.56 mg
Flux ± S.D. ([2]; pH 4): 0.495 ± 0.125 mg × cm^-2 × h^-1
SMILES: COc1ccc2c(c1)OC(C)(C)[C@@H](c1ccccc1)[C@@H]2c1ccc(OCCN2CCCC2)cc1 [levormeloxifene fumarate, (-)-3R,4R-trans-7-methoxy-2,2-dimethyl-3-phenyl-4-{4-[2-(pyrrolidin-1-yl)ethoxy]phenyl}chromane, hydrogen fumarate]

SMILES: COc1ccc2c(c1)OC(C)(C)[C@@H](c1ccccc1)[C@@H]2c1ccc(OCCN2CCCC2)cc1 (relative stereo) [Centchroman]
cholesterol lowering [3]: potent cholesterol lowering pharmaceutical agent expressed by a significant decrease of the serum concentrations

SMILES: COc1ccc2c(c1)OC(C)(C)[C@@H](c1ccccc1)[C@@H]2c1ccc(OCCN2CCCC2)cc1 [hydrochloride salt]
hygroscopicity [4]: hygroscopic
behaviour in aqueous suspension [5]: forms a solid gel in aqueous suspension
solubility in water [5]: quite heavy soluble in water

SMILES: COc1ccc2c(c1)OC(C)(C)[C@@H](c1ccccc1)[C@@H]2c1ccc(OCCN2CCCC2)cc1 [levormeloxifene, (-)-3R,4R-trans-7-methoxy-2,2-dimethyl-3-phenyl-4-{4-[2-(pyrrolidin-1-yl)ethoxy]phenyl}chromane]
solubility in water ([5]; listed as free base): very poor solubility in water
